What was measured:
C57/BL6 mice [1] = experiment: Grip strength test in dexamethasone animal model of muscle loss; format: in vivo, mouse; conditions: dexamethasone 1 mg/kg s.c. alone
Protocol: (§1) Dexamethasone, a synthetic glucocorticoid, was injected subcutaneously into C57/BL6 mouse mice to establish an animal model of muscle loss and following experiment was performed.
(§2) To establish an in vivo model of muscle loss, 6 weeks-old male C57/BL6 mice (Raon Bio, 6 weeks old, weight range: 32-36 g) were acclimated for one-week, and then weighed animals determined to be healthy during the acclimatization period. The mice close to the average weight were selected using a simple random sampling method and were classified into five groups, namely, (a) a control group, (b) a muscle loss control group (treated with dexamethasone 1 mg/kg), (c) test sample group treated with inventive extract 250 mg/kg and dexamethasone, (d) test sample group treated with inventive extract 500 mg/kg and dexamethasone, and (e) positive control treated with oxymetholone (Celltrion Co. Ltd, ATC #A14AA05, 10 mg/kg) and dexamethasone.
(§3) The inventive Extract and oxymetholone were administered once to the mice daily for 4 weeks and dexamethasone was injected subcutaneously for 10 days from 10 days before the end of co-treatment of inventive extract and oxymetholone.
(§4) Both of inventive extract and oxymetholone were forcibly administered orally using zonde for oral administration after holding and fixing the skin of the animal's poll area, and dexamethasone was injected slowly subcutaneously after inserting a syringe into the dorsal skin fold of the animal held on the thumb and index finger, slightly aspirating whether it was injected normally, and confirming that no blood came out.
The grip strength of mice was determined as follows; after grabbing the animal's tail and placing it on the grid, the front foot and body were pulled at the same speed until the front foot and body were held at the grid with the front paw, and the average value was calculated after three experimental repetitions. The determination was performed on the 14th and 28th days after the administration of test sample.

[2] = Body weight in dexamethasone animal model of muscle loss; format: in vivo, mouse; conditions: dexamethasone 1 mg/kg s.c. alone
Protocol: as §1, §2, §3, §4
The body weight of every animal was measured once a week for 4 weeks from the day of inventive extract administration.

MHC = experiment: Western blot of MHC in dexamethasone-treated myotube cells (in vitro model of muscle loss); format: cell-based, mouse; conditions: myotube cells treated with dexamethasone alone; untreated cells = 1
Protocol: (§5) In order to confirm the inhibitory effect of the inventive extract obtained in Example, dexamethasone was treated to myotube cell to establish in vitro model of muscle loss and following experiment was performed according to the procedure disclosed in the previous literature (Int. J. Mol. Med. 2015, 36:29).
(§6) For Western blot analysis, about 3×10^4 mouse myoblast cell cells (C2C12; CRL-1772 ATCC) were incubated in 60 mm plates for 24 hours, and various concentrations of each inventive extract (0, 1, 10, 100 ng/mL) was added to the differentiation medium for 3 days to differentiate. The protein extract was obtained from the differentiated cells using by lysis buffer [25 mM Tris-HCl (pH 7.5), 100 mM NaCl, 1% NP-40, 1% sodium deoxycholate, 0.1% sodium dodecyl sulfate (SDS), and protease inhibitor cocktail, Calbiochem, Darmstadt, Germany). The protein extract (25 μg) was performed to SDS-polyacrylamide gel electorphoresis (PAGE) and transferred to polyvinylidene fluoride (PVDF) membranes.
Primary mouse anti-MHC (sc-376157, Santa Cruz) or primary mouse anti-MAFbx (sc-166806, Santa Cruz) was conjugated to the blots at 4° C., for 12 hrs and then conjugated with anti-mouse secondary antibody conjugated to Horseradish peroxidase (goat anti-mouse IgG-HRP, sc-2005, Santa Cruz) to analyze the amount of MHC and MAFbx protein by chemiluminescence method. […]

C57/BL6 mice [3] = experiment: Weight of muscle mass, epididymal fat and liver in dexamethasone animal model of muscle loss; format: in vivo, mouse; conditions: dexamethasone 1 mg/kg s.c. alone, autopsy at 4 weeks
Protocol: as §1, §2, §3, §4
The mice were anesthetized with anesthetic to prevent the movement of experimental animals and sacrificed to minimize pain to dissect them. All instruments used during the experiment were sterilized and disinfected and their liver and epididymis fat were harvested.
The gastrocnemius muscle and soleus muscle of the mice were separated, washed in saline, drained, and weighed.
After autopsy at 4 weeks after administration, the weight of liver and Epididymis fat was weighed to calculate weight-to-weight to compare the relative differences between the organ's weight in the groups.

C57/BL6 mice [4] = experiment: Treadmill test in dexamethasone animal model of muscle loss; format: in vivo, mouse; conditions: dexamethasone 1 mg/kg s.c. alone
Protocol: as §1, §2, §3, §4
The determination was performed on the 14th and 28th days after the administration of test sample.

MAFbx = experiment: Western blot of MAFbx in dexamethasone-treated myotube cells (in vitro model of muscle loss); format: cell-based, mouse; conditions: myotube cells treated with dexamethasone alone; untreated cells = 1
Protocol: as §5
In particular, following experiment was performed according to the procedure disclosed in the previous literature to find out whether inventive extract takes an effect on MAFbx expression during muscle protein degradation by dexamethasone treatment since the activity of MAFbx, a muscle proteolytic enzyme, is known to induce muscle protein loss (Biomed. Pharmacother. 2017, 95:1486)
as §6, with “membranes. […]” for “membranes.”

SMILES: C[C@@H]1C[C@H]2[C@@H]3CCC4=CC(=O)C=C[C@]4(C)[C@@]3(F)[C@@H](O)C[C@]2(C)[C@@]1(O)C(=O)CO [Dexa, dexamethasone]
- grip strength (C57/BL6 mice [1]; 2 weeks): 1.05 ± 0.08 N
- grip strength (C57/BL6 mice [1]; 4 weeks): 0.94 ± 0.12^b N
- body weight ([2]; 0 week): 22.33 ± 1.11 gram
- body weight ([2]; 1 week): 22.84 ± 1.54 gram
- body weight ([2]; 2 weeks): 23.46 ± 1.60 gram
- body weight ([2]; 3 weeks): 23.57 ± 1.81 gram
- body weight ([2]; 4 weeks): 23.57 ± 1.76^ab gram
- MHC expression (MHC): 0.7 fold
- absolute weight, epididymal fat (C57/BL6 mice [3]): 0.51 ± 0.10 gram
- absolute weight, calf muscle (C57/BL6 mice [3]; gastrocnemius): 0.242 ± 0.014 gram
- absolute weight, fluke muscle (C57/BL6 mice [3]; soleus): 0.014 ± 0.002^c gram
- motility (treadmill) (C57/BL6 mice [4]; 2 weeks): 798.85 ± 14.33 meter
- motility (treadmill) (C57/BL6 mice [4]; 4 weeks): 745.73 ± 30.01 meter
- MAFbx expression (MAFbx): 1.9 fold
